Assay results as given in PubChem BioAssay (NCI).
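Tested at 5 concentrations; 48 h exposure; 96-well plates; endpoints linearly interpolated, else capped at highest concentration. TGI: total growth inhibition.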

Experiments:
Experiment in all cases: NCI tumour cell line growth inhibition, 48 h
[1] = system: BT-549 breast
[2] = system: DU-145 prostate
[3] = system: EKVX NSCLC
[4] = system: HCC-2998 colon
[5] = system: HCT-116 colon
[6] = system: HCT-15 colon
[7] = system: HOP-92 NSCLC
[8] = system: IGROV1 ovarian
[9] = system: M14 melanoma
[10] = system: MOLT-4 leukemia
[11] = system: NCI-H226 lung
[12] = system: OVCAR-5 ovarian
[13] = system: OVCAR-8 ovarian
[14] = system: SF-268 CNS
[15] = system: TK-10 renal

| SMILES | TGI [1] [µM] | TGI [2] [µM] | TGI [3] [µM] | TGI [4] [µM] | TGI [5] [µM] | TGI [6] [µM] | TGI [7] [µM] | TGI [8] [µM] | TGI [9] [µM] | TGI [10] [µM] | TGI [11] [µM] | TGI [12] [µM] | TGI [13] [µM] | TGI [14] [µM] | TGI [15] [µM] |
| --- | --- | --- | --- | --- | --- | --- | --- | --- | --- | --- | --- | --- | --- | --- | --- |
| COc1cc(NC(C)c2ccc3c(c2)OCCO3)cc(OC)c1OC (stereo not given) | > 100 | > 100 | > 100 | > 100 | > 100 | > 100 | > 100 | > 100 | > 100 | > 100 | 75.6 | > 100 | > 100 | > 100 | > 100 |
| CN(C)CCNc1ccc([N+](=O)[O-])c2sc3ccccc3c(=O)c12 | 17.2 | 31.5 | 25.2 | 13.1 | 11.3 | 23.6 | 51.2 | 7.66 | 46.8 | > 100 | 51.2 | 14.6 | 19.9 | 48.8 | > 100 |
| NC(N)=Nc1ccc(-c2ccc(N=C(N)N)cc2)cc1 | > 100 | > 76.1 | > 100 | > 100 | > 100 | > 100 | > 100 | > 89.6 | > 100 | > 100 | 65.4 | 81.3 | > 100 | > 100 | 36.5 |
| O=C1OCN(c2ccccc2)C12CCN(Cc1ccccc1)CC2 | > 100 | > 100 | > 100 | 32.6 | > 100 | 94.6 | > 100 | > 100 | 33.1 | 36.6 | > 100 | > 100 | > 100 | > 100 | > 100 |
| O=[N+]([O-])c1cccc2nc3ccccc3c(NCCCCNc3c4ccccc4nc4cccc([N+](=O)[O-])c34)c12 | 1.79 | 0.133 | 2.11 | 0.164 | 0.0347 | 1.02 | 0.0854 | 2.2 | 0.199 | 0.0887 | 2.66 | 1.64 | 1.09 | 0.189 | 0.0304 |
